Key:
[1] = biological target: T1, unphosphorylated VEGF-R2Δ50 (FLVK) (Homo sapiens, UniProt P35968, DEL940-989/E990V); test: VEGF-R2 coupled spectrophotometric assay, unphosphorylated enzyme (FLVK); assay type: biochemical
T1 construct: VEGF-R2Δ50 contains residues 806-939 and 990-1171; made in house; host or cells: baculovirus/insect cells
Summary of the method: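 Unphosphorylated VEGF-R2Δ50 (5 to 40 nM) with 20 mM poly(E4Y1), 3 mM ATP, 60 mM MgCl2, 2 mM MnCl2 in 200 mM Hepes pH 7.5. ADP production coupled via PK/LDH to NADH oxidation, read at 340 nm. Ki from activity at varying compound concentrations.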

[2] = tested on: human umbilical vein endothelial cells (HUVEC); test: HUVEC proliferation assay; assay type: cell-based; details: Homo sapiens, HUVEC
Summary of the method: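 Exponentially growing HUVEC were serum-starved 24 h (F12K + 1% FBS), pre-treated 1 h with compound (0.1% DMSO final), then stimulated with 6 ng/ml VEGF. Proliferation was read 72 h later by MTT reduction (A595). IC50 came from seven 0.5-log concentrations in triplicate; screens gave % inhibition relative to VEGF-only and starved wells.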

[3] = tested on: lung cancer cells (line MV522); test: Cancer cell proliferation (MV522) assay; assay type: cell-based
Method: Cancer Cell Proliferation (MV522) Assay
The protocol for assessing cellular proliferation in cancer cells is similar to that used for assessments in HUVEC cells. Two thousand lung cancer cells (line MV522, acquired from American Tissue Cultural Collection) were seeded in growth media (RPMI1640 medium supplemented with 2 mM glutamine and 10% FBS). Cells are allowed to attach for 1 day prior to addition of test agents and/or vehicles. Cells are treated simultaneously with the same test agents used in the HUVEC assay. Cellular proliferation is quantified by MTT dye reduction assay 72 hours after exposure to test agents. The total length of the assay is 4 days vs. 5 for HUVEC cells because MV522 cells are not exposed to starvation medium.

[4] = biological target: T2, phosphorylated VEGF-R2Δ50 (FLVK-P) (Homo sapiens, UniProt P35968, DEL940-989/E990V); test: VEGF-R2 coupled spectrophotometric (FLVK-P) assay; assay type: biochemical; details: Table 1; spectrophotometric assay
T2 construct: VEGF-R2Δ50 contains residues 806-939 and 990-1171; made in house; host or cells: baculovirus/insect cells
Summary of the method: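 Baculovirus-expressed human VEGF-R2Δ50 (residues 806-939/990-1171, E990V) was autophosphorylated with 3 mM ATP, 40 mM MgCl2 for 2 h at 4° C. ADP formation was coupled via PK/LDH to NADH oxidation, read at 340 nm, with 5.1 mM poly(E4Y1), 1 mM ATP, 25 mM MgCl2, Hepes pH 7.5. Ki came from activity across compound concentrations.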

T1 sequence (P35968 with tags, fused parts or gaps DEL940-989/E990V limits assumed): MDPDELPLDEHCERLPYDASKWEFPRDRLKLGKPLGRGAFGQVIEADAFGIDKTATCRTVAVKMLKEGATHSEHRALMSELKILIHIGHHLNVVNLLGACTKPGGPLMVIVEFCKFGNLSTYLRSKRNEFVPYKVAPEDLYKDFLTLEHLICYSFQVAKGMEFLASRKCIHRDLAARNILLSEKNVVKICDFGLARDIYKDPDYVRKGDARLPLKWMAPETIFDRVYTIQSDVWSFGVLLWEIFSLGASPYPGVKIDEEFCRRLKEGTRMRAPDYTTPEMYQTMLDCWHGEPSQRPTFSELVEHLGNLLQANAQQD
T2 sequence (P35968 with tags, fused parts or gaps DEL940-989/E990V limits assumed): as above

| SMILES | Ki ([1]; Table 3, some entries 'Slow binder') [nM] | IC50 ([2]; Table 3) [nM] | IC50 ([3]; MV522, Table 3) [nM] | Ki [4] [nM] | Ki ([1]; Table 1) [nM] | IC50 ([2]; Table 1) [nM] | IC50 ([3]; MV522, Table 1) [nM] |
| --- | --- | --- | --- | --- | --- | --- | --- |
| CNc1nc(N)c(-c2nc(-c3cc(NC(=O)c4cccc(OC)c4)ccc3C)no2)s1 [B(17), N-(3-{5-[4-Amino-2-(3,4,5-methylamino)-thiazol-5-yl]-[1,2,4]oxadiazol-3-yl]-4-methyl-phenyl}-3-methoxy-benzamide] | 3.4 | 63 | 1300 |  |  |  |  |
| COc1cc(Nc2nc(N)c(-c3nc(-c4cccc(NC(=O)OCc5ccccc5)c4)cs3)s2)cc(OC)c1OC [D(12), {3-[4′-Amino-2′-(3,4,5-trimethoxy-phenylamino)-[2,5′]bithiazolyl-4-yl]-phenyl}-carbamic acid benzyl ester] |  |  |  | 2 | 2.6 | 160 | > 10000 |
| COc1cc(Nc2nc(N)c(-c3nc(-c4cccc(NC(=O)c5ccccc5)c4)cs3)s2)cc(OC)c1OC [D(24), N-{3-[4′-Amino-2′-(3,4,5-trimethoxy-phenylamino)-[2,5′]bithiazolyl-4-yl]-phenyl}-benzamide] |  |  |  | 1.8 | 2 | 110 | > 10000 |
| COc1cc(Nc2nc(N)c(-c3nc(-c4cccc(NC(=O)c5cccc(C(C)C)c5)c4)cs3)s2)cc(OC)c1OC [D(27), N-{3-[4′-Amino-2′-(3,4,5-trimethoxy-phenylamino)-[2,5′]bithiazolyl-4-yl]-phenyl}-3-isopropyl-benzamide] |  |  |  | 1.8 |  | 82 | > 10000 |
| COc1cc(Nc2nc(N)c(-c3nc(-c4cccc(NC(=O)c5cccc(Br)c5)c4)cs3)s2)cc(OC)c1OC [D(29), N-{3-[4′-Amino-2′-(3,4,5-trimethoxy-phenylamino)-[2,5′]bithiazolyl-4-yl]-phenyl}-3-bromo-benzamide] |  |  |  | 1.4 |  | 32 | > 10000 |
| COc1cc(Nc2nc(N)c(-c3nc(-c4cccc(NC(=O)c5ccc(Cl)c(C)c5)c4)cs3)s2)cc(OC)c1OC [D(30), N-{3-[4′-Amino-2′-(3,4,5-trimethoxy-phenylamino)-[2,5′]bithiazolyl-4-yl]-phenyl}-4-chloro-3-methyl-benzamide] |  |  |  | 2.9 |  | 48 | > 10000 |
| COc1cc(C(=O)Nc2cccc(-c3csc(-c4sc(Nc5cc(OC)c(OC)c(OC)c5)nc4N)n3)c2)ccc1C [D(32), N-{3-[4′-Amino-2′-(3,4,5-trimethoxy-phenylamino)-[2,5′]bithiazolyl-4-yl]-phenyl}-3-methoxy-4-methyl-benzamide] |  |  |  | 3.9 |  | 59 | > 10000 |
| COc1cc(Nc2nc(N)c(-c3nc(-c4cccc(NC(=O)c5sc(C)nc5C)c4)cs3)s2)cc(OC)c1OC [D(33), 2,4-Dimethyl-thiazole-5-carboxylic acid {3-[4′-amino-2′-(3,4,5-trimethoxy-phenylamino)-[2,5′]bithiazolyl-4-yl]-phenyl}-amide] |  |  |  | 3.8 | 3.6 | 120 | > 10000 |
| COc1cc(Nc2nc(N)c(-c3nc(-c4cccc(NC(=O)c5ccc(C)s5)c4)cs3)s2)cc(OC)c1OC [D(34), 5-Methyl-thiophene-2-carboxylic acid {3-[4′-amino-2′-(3,4,5-trimethoxy-phenylamino)-[2,5′]bithiazolyl-4-yl]-phenyl}-amide] |  |  |  | 0.85 |  | 89 | 9000 |
| COc1cc(Nc2nc(N)c(-c3nc(-c4cccc(NC(=O)c5ccc(Cl)s5)c4)cs3)s2)cc(OC)c1OC [D(35), 5-Chloro-thiophene-2-carboxylic acid {3-[4′-amino-2′-(3,4,5-trimethoxy-phenylamino)-[2,5′]bithiazolyl-4-yl]-phenyl}-amide] |  |  |  | 1.8 |  | 42 | > 10000 |
| COc1cc(Nc2nc(N)c(-c3nc(-c4cccc(NC(=O)c5ccc(Br)s5)c4)cs3)s2)cc(OC)c1OC [D(36), 5-Bromo-thiophene-2-carboxylic acid {3-[4′-amino-2′-(3,4,5-trimethoxy-phenylamino)-[2,5′]bithiazolyl-4-yl]-phenyl}-amide] |  |  |  | 2 |  | 43 | > 10000 |
| COc1cc(Nc2nc(N)c(-c3nc(-c4cccc(NC(=O)c5ccc(Br)o5)c4)cs3)s2)cc(OC)c1OC [D(37), 5-Bromo-furan-2-carboxylic acid {3-[4′-amino-2′-(3,4,5-trimethoxy-phenylamino)-[2,5′]bithiazolyl-4-yl]-phenyl}-amide] |  |  |  | 3.4 |  | 150 | > 10000 |
| COc1cc(Nc2nc(N)c(-c3nc(-c4cccc(NC(=O)c5cccc(C)c5)c4)cs3)s2)cc(OC)c1OC [D(38), N-{3-[4′-Amino-2′-(3,4,5-trimethoxy-phenylamino)-[2,5′]bithiazolyl-4-yl]-phenyl}-3-methyl-benzamide] |  |  |  | 0.93 |  | 40 | > 10000 |
| CCc1cccc(C(=O)Nc2cccc(-c3csc(-c4sc(Nc5cc(OC)c(OC)c(OC)c5)nc4N)n3)c2)c1 [D(39), N-{3-[4′-Amino-2′-(3,4,5-trimethoxy-phenylamino)-[2,5′]bithiazolyl-4-yl]-phenyl}-3-ethyl-benzamide] |  |  |  | 1.4 |  | 62 | > 10000 |
| COc1cccc(C(=O)Nc2cccc(-c3csc(-c4sc(Nc5cc(OC)c(OC)c(OC)c5)nc4N)n3)c2)c1 [D(41), N-{3-[4′-Amino-2′-(3,4,5-trimethoxy-phenylamino)-[2,5′]bithiazolyl-4-yl]-phenyl}-3-methoxy-benzamide] |  |  |  | 1.9 |  | 37 | > 10000 |
| COc1cc(Nc2nc(N)c(-c3nc(-c4cccc(NC(=O)OC(C)(C)C)c4)cs3)s2)cc(OC)c1OC [D(43), {3-[4′-Amino-2′-(3,4,5-trimethoxy-phenylamino)-[2,5′]bithiazolyl-4-yl]-phenyl}-carbamic acid tert-butyl ester] |  |  |  | 2.9 |  | 241 | > 10000 |
| COc1cc(Nc2nc(N)c(-c3nc(-c4cccc(NC(=O)c5ccccc5)c4)no3)s2)cc(OC)c1OC [D(46), 3-[3-Benzamidophenyl]-5-[2-[(3,4,5-trimethoxyphenyl)amino]-4-amino-5-thiazolyl]-1,2,4-oxadiazole] |  |  |  | 17.1 |  | 123 | > 10000 |
| COc1cccc(C(=O)Nc2cccc(-c3noc(-c4sc(Nc5cc(OC)c(OC)c(OC)c5)nc4N)n3)c2)c1 [D(48), 3-[3-(3-Methoxybenzamido)phenyl]-5-[2-[(3,4,5-trimethoxyphenyl)amino]-4-amino-5-thiazolyl]-1,2,4-oxadiazole] |  |  |  | 4.1 |  | 40 | > 10000 |
| COc1cc(Nc2nc(N)c(-c3nc(-c4cccc(NC(=O)c5cccc(C(F)(F)F)c5)c4)no3)s2)cc(OC)c1OC [D(49), 3-[3-(3-Trifluoromethylbenzamido)phenyl]-5-[2-[(3,4,5-trimethoxyphenyl)amino]-4-amino-5-thiazolyl]-1,2,4-oxadiazole] |  |  |  | 1.6 |  | 15 | > 10000 |
| COc1cc(Nc2nc(N)c(-c3nc(-c4cccc(NC(=O)c5cccc(Cl)c5)c4)no3)s2)cc(OC)c1OC [D(50), 3-[3-(3-Chlorobenzamido)phenyl]-5-[2-[(3,4,5-trimethoxyphenyl)amino]-4-amino-5-thiazolyl]-1,2,4-oxadiazole] |  |  |  | 1.4 |  | 17 | > 10000 |

Reference: patent US6620828B2, “Thiazole compounds and pharmaceutical compositions for inhibiting protein kinases and methods for their use” (Agouron Pharmaceuticals, Inc., priority 1999, dated 2003)
